Experimental data as given in patent publication US20220184059A1, “PROCESS FOR PREPARING SPHERICAL AGGLOMERATES OF TIMAPIPRANT” (Chiesi Farmaceutici S.p.A., priority 2018, published 2022).
Values joined by “and” are separate entries in the source; they are usually repeats but may differ in a detail not shown here. Equal entries are not always repeated. Where two headings read alike, the source gives them in different places.

Tests used:
[1] = Primary particle size distribution by laser diffraction after break up of spherical agglomerates; type: physicochemical; conditions: primary particles; for PSD d (0.1), Mean result / PSD d (0.5), Mean result: mean of 10 acquisitions
Description: The primary particle size distribution results are produced by means of a Malvern 2000 laser diffraction equipment by the analysis of the primary particles in suspension.
The particle size distribution laser diffraction measures were performed using a Malvern Mastersizer 2000 equipped with a Hydro 2000S cell for the wet suspension of the Timapiprant primary particles. The spherical agglomerates obtained according to the Examples 3 and 5, were dispersed in water by means of 10 minutes sonication and then added to the cell, previously filled with water, until an obscuration within 5-10% was obtained. The stirring rate was set at 1500 rpm and each of the suspensions produced were analysed by 10 acquisitions, the results are reported in Tables 1 and 2.

[2] = Specific surface area (SSA) by BET nitrogen adsorption; type: physicochemical
Description: The specific surface areas (SSA) of spherical agglomerates of timapiprant obtained according to Examples 3, 5,7 and the micronized timapiprant were measured was determined by BET nitrogen adsorption using the TriStar of Micromeritics apparatus according to following parameters: • Isotherm, Adsorbing/Desorbing Run: 0 to 1 p/p0 • Vials: ⅜ Inch, Degasing Pre-analysis: 2 hours at 40° C., Nitrogen as adsorbate • Preparation: Evacuation Rate 10 mmHg/s; Unrestricted evacuation from 5 mmHg • Vacuum setpoint: 10 mmHg, Evacuation time: 1 hour • Leak Test Duration: 120 s, Outgas Test Duration: 180 s • Measure p0 at intervals during the analysis, Enter the analysis bath temperature: […]77 kelvin • Equilibration Interval: 5 s; Minimum Equilibration Delay at p/p0>=0.995 per 600 s.

[3] = Flowability of blend material with excipients; type: physicochemical; conditions: for Flowability (s/100 g): blend material of API with excipients of Table 3; for Flow properties of blend: blend material of API with excipients
Description: The spherical agglomerates of timapiprant or the micronized timapiprant, together with the microcrystalline cellulose, the croscarmellose sodium, the poloxamer, the sodium lauryl sulphate and the colloidal silicon dioxide in the above amounts, are sieved in a sieve of 1.2 mm. The lactose monohydrate is then added, and the resulting mixture is blended in a free fall blender for at least 15 minutes. The magnesium stearate is added to the obtained mixture which is further blended in the free fall blender for additional 3 minutes.

[4] = biological target: T1, prostaglandin D2 receptor (CRTH2) (Homo sapiens, UniProt Q9Y5Y4); conditions: cited from earlier work
T1 sequence (Q9Y5Y4 1-395): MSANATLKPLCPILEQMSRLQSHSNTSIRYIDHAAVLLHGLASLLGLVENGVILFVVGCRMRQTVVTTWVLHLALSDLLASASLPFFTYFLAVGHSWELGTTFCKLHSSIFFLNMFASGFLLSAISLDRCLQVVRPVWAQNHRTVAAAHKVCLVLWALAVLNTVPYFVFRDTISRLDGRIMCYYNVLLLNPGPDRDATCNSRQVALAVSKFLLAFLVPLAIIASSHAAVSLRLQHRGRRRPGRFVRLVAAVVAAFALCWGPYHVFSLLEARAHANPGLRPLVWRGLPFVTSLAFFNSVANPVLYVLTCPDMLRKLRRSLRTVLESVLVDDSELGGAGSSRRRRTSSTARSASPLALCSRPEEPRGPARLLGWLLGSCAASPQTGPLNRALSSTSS

[5] = tested on: human Th2 lymphocytes and eosinophils; conditions: cited from earlier work
[6] = tested on: patients with atopic eosinophilic asthma; conditions: cited from earlier work
[7] = agglomerates dispersed in water by 10 minutes sonication, single acquisition

Cc1c(Cc2ccc3ccccc3n2)c2cc(F)ccc2n1CC(=O)O [Example 3, (5-fluoro-2-methyl-3-quinolin-2-yl-methyl-indol-1-yl)acetic acid]
PSD d (0.1) [1, 7]: 0.28 μm
PSD d (0.5) [1, 7]: 0.56 μm
PSD d (0.1), Mean result [1]: 0.28 μm
PSD d (0.5), Mean result [1]: 0.56 μm
SSA (m^2/g) ([2]; listed as Spherical agglomerates of timapiprant of Example 3): 13.1 m^2/g

Cc1c(Cc2ccc3ccccc3n2)c2cc(F)ccc2n1CC(=O)O [Example 5, (5-fluoro-2-methyl-3-quinolin-2-yl-methyl-indol-1-yl)acetic acid]
Flowability (s/100 g) ([3]; listed as Spherical agglomerates of timapirpant): 4 sec s/100 g
Flow properties of blend ([3]; listed as spherical agglomerates of timapiprant): good flowability
PSD d (0.5) [1, 7]: 0.64 μm
PSD d (0.1), Mean result [1]: 0.31 μm
PSD d (0.5), Mean result [1]: 0.64 μm
SSA (m^2/g) ([2]; listed as Spherical agglomerates of timapiprant of Example 5): 10.1 m^2/g

Cc1c(Cc2ccc3ccccc3n2)c2cc(F)ccc2n1CC(=O)O [Example 7, (5-fluoro-2-methyl-3-quinolin-2-yl-methyl-indol-1-yl)acetic acid]
SSA (m^2/g) ([2]; listed as Spherical agglomerates of timapiprant of Example 7): 15.5 m^2/g

Cc1c(Cc2ccc3ccccc3n2)c2cc(F)ccc2n1CC(=O)O [Micronized Timapiprant, reference compound]
Flow properties of blend [3]: very poor flow properties
Flowability (s/100 g) [3]: ∞
SSA (m^2/g) [2]: 8.0 m^2/g and 7.8 m^2/g
SSA (m^2/g) ([2]; listed as micronized timapiprant): less than 8.5 m^2/g

Cc1c(Cc2ccc3ccccc3n2)c2cc(F)ccc2n1CC(=O)O [timapiprant]
CRTH2 antagonist activity [4]: potent, selective, and orally active prostaglandin D2 receptor (CRTH2) antagonist
Inhibition of mast cell-dependent activation [5]: inhibits mast cell-dependent activation of both human Th2 lymphocytes and eosinophils
Clinical efficacy [6]: effective in reducing airway inflammation and improving lung function and quality of life
